Data as given in the supplement of paper PMC8882468.

Experiments:
Assay in all cases: CTG-3D luminescence at 96 h relative to day-0 seeding control (ratio to day 0); higher = more growth / less cytotoxicity; PDxO 3D drug screen (set 2), 96 h, CTG-3D normalised to day-0 seeding control.
[1] = system: HCI-001 (organoid from a triple-negative breast cancer xenograft)
[2] = system: HCI-002 (organoid from a triple-negative breast cancer xenograft)
[3] = system: HCI-005.E2 (organoid from a breast cancer xenograft with a HER2-positive history)
[4] = system: HCI-008 (organoid from a HER2-enriched breast cancer xenograft)
[5] = system: HCI-015 (organoid from a triple-negative breast cancer xenograft)
[6] = system: HCI-025 (organoid from a breast cancer xenograft)

CC(=O)c1c(C)c2cnc(Nc3ccc(N4CCNCC4)cn3)nc2n(C2CCCC2)c1=O [palbociclib]
CTG-3D luminescence at 96 h
Conditions	12.5 pM	0.00025 µM	0.005 µM	0.1 µM	1 µM	10 µM	100 µM	625 fM
[1], days in culture: 365	2.73	2.25	2.7	2.64	2.4	1.89	1.62	2.11
[1], days in culture: 397	1.74	2.12	2.31	2.47	2.46	2	1.24	1.26
[1], days in culture: 401	1.54	2.13	1.58	1.85	1.33	1.58	0.962	1.63
[2], days in culture: 127	2.7	3.03	2.72	3.1	2.26	2.38	2.33	2.77
[2], days in culture: 155	4.87	4.92	5.53	4.73	3.5	3.42	2.36	5.36
[2], days in culture: 168	3.15	3.17	3.77	2.95	3.02	2.23	1.63	4.09
[4], days in culture: 325	1.14	1.96	2.03	2.74	3.58	2.05	0.962	1.8
[4], days in culture: 340	0.654	3.19	1.76	2.01	2.37	–	1.18	1.13
[4], days in culture: 354	1.29	1.41	2.34	1	1.11	0.979	1.21	0.693
[4], days in culture: 382	1.83	1.31	1.55	1.83	1.16	1.66	0.974	1.59
[5], days in culture: 333	1.88	1.26	1.44	0.877	0.941	0.44	0.369	1.89
[5], days in culture: 355	3.11	2.44	1.74	3.47	0.976	1.99	0.775	1.74
[5], days in culture: 369	2.19	1.75	2.45	1.9	1.82	1.07	0.742	1.94
[6], days in culture: 175	1.84	2.51	1.75	1.97	2.37	2.28	1.24	1.97
[6], days in culture: 189	2.77	1.41	2.23	1.9	1.78	1.42	0.673	3.4
[6], days in culture: 212	2.24	1.43	1.94	1.29	0.809	2.39	2.52	2.45
[6], days in culture: 224	1.84	1.83	1.88	1.26	2	2.17	1.17	1.33

[3]
Conditions	CTG-3D luminescence at 96 h
12.5 pM	1.84
0.00025 µM	2.56
0.005 µM	2.41
0.1 µM	3.06
1 µM	2.51
10 µM	2.16
100 µM	0.934
625 fM	2.38

CO[C@H]1C[C@@H]2CC[C@@H](C)[C@@](O)(O2)C(=O)C(=O)N2CCCC[C@H]2C(=O)O[C@H]([C@H](C)C[C@@H]2CC[C@@H](O)[C@H](OC)C2)CC(=O)[C@H](C)/C=C(\C)[C@@H](O)[C@@H](OC)C(=O)[C@H](C)C[C@H](C)/C=C/C=C/C=C/1C [rapamycin]
CTG-3D luminescence at 96 h
Conditions	12.5 pM	0.00025 µM	0.005 µM	0.1 µM	1 µM	10 µM	100 µM	625 fM
[1], days in culture: 365	2.01	1.51	1.8	1.8	1.28	1.67	0.0179	1.4
[1], days in culture: 397	1.46	1.71	1.53	1.84	1.22	1.87	0.017	1.1
[1], days in culture: 401	1.07	1.45	1.1	1.26	0.98	1.23	0.00642	0.961
[2], days in culture: 127	1.89	1.99	1.94	2.24	1.85	2.01	0.0264	2.17
[2], days in culture: 155	3.33	3.32	3.3	3.82	2.76	2.89	0.0206	3.05
[2], days in culture: 168	2.98	2.48	2.66	2.27	2.64	2.56	0.0148	3.57
[4], days in culture: 325	1.02	2.07	1.15	1.85	1.96	1.63	0.0243	1.04
[4], days in culture: 340	0.377	2.04	1.44	0.883	1.17	–	0.0122	0.721
[4], days in culture: 354	1.17	0.924	1.28	0.845	0.613	1.04	0.0113	0.658
[4], days in culture: 382	1.67	1.28	0.869	1.12	0.658	1.06	0.0068	1.24
[5], days in culture: 333	1.29	0.897	0.593	1.1	0.612	0.447	0.0119	1.04
[5], days in culture: 355	1.27	2.02	0.979	1.55	1.15	1.05	0.0149	1.06
[5], days in culture: 369	1.79	1.03	1.2	1.39	1.48	0.955	0.00715	1.62
[6], days in culture: 175	1.08	1.22	1.44	1.39	1.87	1.67	0.0257	0.977
[6], days in culture: 189	1.35	1.19	1.11	0.862	0.888	0.979	0.0056	1.27
[6], days in culture: 212	2.1	0.842	1.53	1.27	0.387	1.15	0.0154	1.5
[6], days in culture: 224	1.83	1.19	0.969	0.734	1.53	1.31	0.00743	1.36

[3]
Conditions	CTG-3D luminescence at 96 h
12.5 pM	1.21
0.00025 µM	1.28
0.005 µM	1.46
0.1 µM	1.72
1 µM	1.73
10 µM	1.49
100 µM	0.0167
625 fM	1.52

CC(C)n1nc(-c2ccc3oc(N)nc3c2)c2c(N)ncnc21 [sapanisertib]
CTG-3D luminescence at 96 h
Conditions	12.5 pM	0.00025 µM	0.005 µM	0.1 µM	1 µM	10 µM	100 µM	625 fM
[1], days in culture: 365	2.81	2.2	2.02	1.47	0.787	0.663	0.424	1.97
[1], days in culture: 397	1.78	1.58	1.37	0.91	0.823	0.77	0.471	1.56
[1], days in culture: 401	1.48	1.97	1.53	0.815	0.544	0.657	0.396	1.63
[2], days in culture: 127	2.42	2.94	2.62	1.76	0.875	0.742	0.27	3.04
[2], days in culture: 155	5.75	5.31	5.49	2.38	1.32	0.875	0.163	4.67
[2], days in culture: 168	3.37	3.2	3.78	1.61	0.882	0.787	0.155	4.04
[4], days in culture: 325	1.51	1.96	1.64	0.99	0.826	0.32	0.112	1.88
[4], days in culture: 340	0.668	2.32	1.51	0.592	0.593	–	0.0751	0.965
[4], days in culture: 354	1.18	1.2	2.84	0.615	0.502	0.229	0.122	1.31
[4], days in culture: 382	1.81	1.93	1.22	0.751	0.282	0.304	0.0604	1.7
[5], days in culture: 333	1.82	1.45	1.21	0.567	0.461	0.114	0.0973	1.56
[5], days in culture: 355	2.17	1.74	1.65	1.3	0.564	0.557	0.233	1.38
[5], days in culture: 369	2.06	1.61	2.17	0.797	0.611	0.449	0.336	1.68
[6], days in culture: 175	1.69	1.73	1.62	0.506	0.401	0.466	0.283	2.01
[6], days in culture: 189	2.16	2.67	1.63	0.619	0.34	0.244	0.0962	3.34
[6], days in culture: 212	1.26	1.57	2.69	0.0755	0.227	0.183	0.277	1.33
[6], days in culture: 224	2.13	1.98	1.91	0.411	0.423	0.26	0.17	1.86

[3]
Conditions	CTG-3D luminescence at 96 h
12.5 pM	1.96
0.00025 µM	2.23
0.005 µM	2.42
0.1 µM	1.23
1 µM	0.685
10 µM	0.506
100 µM	0.0873
625 fM	1.98
